This is an account of results in publication PMC9942557, “Bolaamphiphile Analogues of 12-bis-THA Cl2 Are Potent Antimicrobial Therapeutics with Distinct Mechanisms of Action against Bacterial, Mycobacterial, and Fungal Pathogens” (mSphere, 2022).

The subject of one data set is C. krusei 3876. As to the kind of experiment: Broth microdilution MIC. The note with it: Pichia kudriavzevii, read-out: MIC. The class given is cell-based. Background: In broth dilution the organism is exposed to a series of concentrations in liquid medium.
Data set [1] concerns VR Enterococcus faecalis NCTC 12201. As to the kind of experiment: Broth microdilution MIC. The note with it: NCTC12201; VR Enterococcus faecalis NCTC 12201; read-out: MIC. The class given is cell-based.
Another data set has as its system HeLa. In words: In vitro toxicity for cell line. The settings on record: Homo sapiens, read-out: Toxicity (EC50). The class given is cell-based, human. An excerpt:
(§1) TABLE 2 Toxicity of bolaamphiphiles for two cell lines^a | column: Toxicity (EC50 [μg/ml]) of: / 12-bis-THA Cl2; Toxicity (EC50 [μg/ml]) of: / Dequalinium; Toxicity (EC50 [μg/ml]) of: / Quino-bola; Toxicity (EC50 [μg/ml]) of: / Penta-bola; Toxicity (EC50 [μg/ml]) of: / Hepta-bola; Toxicity (EC50 [μg/ml]) of: / Octa-bola; Toxicity (EC50 [μg/ml]) of: / Octa-C10; Toxicity (EC50 [μg/ml]) of: / Octa-C8; Toxicity (EC50 [μg/ml]) of: / Octa-C6

For a further data set, the system named is HEK293. In words: In vitro toxicity for cell line. The class given is cell-based, human. The note with it: Homo sapiens, HEK293, read-out: Toxicity (EC50).
From the text: as §1

Data set [2] deals with Pseudomonas aeruginosa PAO1. In words: Broth microdilution MIC. It is filed as cell-based. The settings on record: read-out: MIC.
In a further data set the test system is Klebsiella pneumoniae M6. In words: Broth microdilution MIC. The settings on record: read-out: MIC. It is filed as cell-based.
The test system of another data set is C. tropicalis 8760. In words: Broth microdilution MIC. It is filed as cell-based. The note with it: Candida tropicalis; C. tropicalis 8760; read-out: MIC.
The test system of data set [3] is VR Enterococcus faecium NCTC 12204. In words: Broth microdilution MIC. The class given is cell-based. The note with it: NCTC12204; VR Enterococcus faecium NCTC 12204; read-out: MIC.
A further data set concerns C. parapsilosis. As to the kind of experiment: Broth microdilution MIC. The class given is cell-based. The note with it: Lodderomyces parapsilosis, read-out: MIC.
Data set [4] deals with Acinetobacter baumannii AYE. In words: Broth microdilution MIC. It is filed as cell-based. The settings on record: Acinetobacter baumannii AYE; read-out: MIC.
The subject of a further data set is C. glabrata 8018. As to the kind of experiment: Broth microdilution MIC. The class given is cell-based. The note with it: Nakaseomyces glabratus; C. glabrata 8018; read-out: MIC.
In data set [5] the test system is Acinetobacter baumannii ATCC 17978. As to the kind of experiment: Broth microdilution MIC. It is filed as cell-based. The note with it: ATCC17978, read-out: MIC.
The next data set has as its system P. aeruginosa PAO1. As to the kind of experiment: Checkerboard synergy assay. It is filed as cell-based, Pseudomonas aeruginosa. The note with it: Pseudomonas aeruginosa, read-out: MIC Alone Bolalipid.
The subject of a further data set is C. parapsilosis 3209. As to the kind of experiment: Broth microdilution MIC. The class given is cell-based. The settings on record: Lodderomyces parapsilosis, read-out: MIC.
For data set [6], the system named is Gram-negative bacteria (avg). As to the kind of experiment: Selectivity index (toxicity/potency). It is filed as cell-based. The note with it: ratio of average toxicity (HEK293 and HeLa) to average potency. The source says: TABLE 3 Selectivity indices of bolaamphiphiles | column: Selectivity of^a: / 12-bis-THA Cl2; Selectivity of^a: / Dequalinium; Selectivity of^a: / Quino-bola; Selectivity of^a: / Penta-bola; Selectivity of^a: / Hepta-bola; Selectivity of^a: / Octa-bola; Selectivity of^a: / Octa-C10; Selectivity of^a: / Octa-C8; Selectivity of^a: / Octa-C6

A further data set in a line: Dynamic light scattering. The class given is physicochemical. The settings on record: 0.36 mM in water. As for the experimental part:
Stock solutions of bolalipids were prepared by dispersing the powder in ultrapure water, then stirring vigorously by vortexing, and sonicating in a 40°C bath sonicator for 20 min. The concentration of each stock solution corresponds to the highest solubility achieved in water for each bolalipid, using the method described above. DLS experiments were performed on a Malvern Zetasizer Nano (Malvern Instruments, Worcestershire, UK) in back-scattering mode at 20°C. There were three independent measurements of each sample and 12 runs for each measurement, with 10 s taken for each run. The attenuator index and measurement position were automatically adjusted. Fifty microliters of each sample was transferred into polystyrene semi-microcuvettes for determination of UV and visible wavelengths (Sarstedt).

The next data set relates to M. smegmatis mc^2 155. As to the kind of experiment: Broth microdilution MIC (Middlebrook 7H9). It is filed as cell-based, Mycobacterium smegmatis. The settings on record: Mycolicibacterium smegmatis, MC^2155, read-out: MIC.
For another data set, the system named is M. tuberculosis Bleupan. As to the kind of experiment: microbe, parasite or virus in culture. The class given is cell-based, Mycobacterium tuberculosis. The note with it: Mycobacterium tuberculosis, read-out: MIC.
The subject of data set [7] is EMR Staphylococcus aureus 16 NCTC 13277. As to the kind of experiment: Broth microdilution MIC. The class given is cell-based. The note with it: NCTC13277; EMR Staphylococcus aureus 16 NCTC 13277; read-out: MIC.
The test system of another data set is C. albicans 3281. As to the kind of experiment: Broth microdilution MIC. The class given is cell-based, Candida albicans. The settings on record: Candida albicans; C. albicans 3281; read-out: MIC.
The test system of data set [8] is pBR322 plasmid, wheat germ topoisomerase I. In words: DNA unwinding assay. It is filed as biochemical. How it is done:
A DNA unwinding assay kit (Inspiralis Limited, Norwich, UK) consists of wheat germ topoisomerase I assay buffer (50 mM Tris HCl [pH 7.9], 1 mM EDTA, 1 mM dithiothreitol [DTT], 20% [vol/vol] glycerol, 50 mM NaCl) dilution buffer (50 mM Tris HCl [pH 7.9], 1 mM EDTA, 1 mM DTT, 50% [vol/vol] glycerol, 500 mM NaCl), wheat germ topoisomerase I (5 U/μL), supercoiled plasmid pBR322 (1 μg/μL), and relaxed plasmid pBR322 (1 μg/μL). For the experiments, 2× DNA loading buffer containing 40% (wt/vol) sucrose, 100 mM Tris-HCl (pH 8), 1 mM EDTA, and 0.5 mg/mL bromophenol blue was prepared. The enzyme was diluted 1/5 with dilution buffer before being used in the assay. For the assay, 3 mM stock solutions in methanol of the compounds to be tested were prepared. An appropriate number of 1.5-mL Eppendorf tubes were filled with 25 μL of a mix consisting of assay buffer (15 μL of buffer per sample), supercoiled or relaxed pBR322 (0.5 μg/assay), and ultrapure water. In the first two tubes, 1 μL of methanol was added to test the effect of the solvent on both the plasmid and the enzyme. Subsequently, 1 μL of the test compounds was added to the remaining tubes, and the tubes briefly vortexed and incubated at room temperature for 5 min. After that, 2 μL of dilution buffer was added in the first tube, whereas 2 μL of enzyme diluted solution was added to the remaining tubes. The tubes were gently vortexed and incubated for 30 min at 37°C in a water bath. After this time, the reaction was stopped by adding 20 μL of water and 50 μL of water-saturated butanol to each tube. The tubes were vortexed and centrifuged for 1 min at 14,800 rpm. The lower aqueous layer of each tube was removed and transferred to a new tube containing 30 μL of chloroform-isoamyl alcohol (24/1) and 50 μL of loading buffer. The tubes were briefly vortexed and centrifuged for 1 min. Twenty microliters of the upper layer of each tube was loaded onto a 1% (wt/vol) agarose gel, and the gel was run at 80 V for approximately 4 h in Tris-acetate-EDTA buffer (40 mM Tris acetate and 1 mM EDTA). Subsequently, the gel was stained with ethidium bromide (1 μg/mL) for 15 min, briefly destained (5 to 10 min) in water, and visualized with a Multi-Doc Imaging M-26X UVP transilluminator.

As a reminder, the EC50 is the concentration that produces a half-maximal response. As for `Nc1c2c([n+](CCCCCCCCCCCC[n+]3c4c(c(N)c5ccccc53)CCCCCC4)c3ccccc13)CCCCCC2` [Octa-bola], the MIC in the data set on C. krusei 3876 came to 0.5 mg/L; in data set [1], 1 mg/L; in [2], 32 mg/L; in the data set with Klebsiella pneumoniae M6, 16 mg/L; in the data set on C. tropicalis 8760 it was 0.25 mg/L; in data set [3], 0.5 mg/L. The MIC amounted to 1 mg/L in the data set with C. parapsilosis; 8 mg/L in data set [4]; 0.5 mg/L in the data set on C. glabrata 8018; 8 mg/L in data set [5]; 32 mg/L with P. aeruginosa PAO1; 0.5 mg/L in the data set with C. parapsilosis 3209. For the same compound, the MIC in the data set on M. smegmatis mc^2 155 came to 0.55 mg/L; in the data set on M. tuberculosis Bleupan it was 0.24 mg/L; in data set [7] it was 0.125 mg/L; with C. albicans 3281 it was 0.5 mg/L. Moreover, the EC50 turned out to be 4.5 ± 0.7 mg/L in the data set on HeLa and 3.8 ± 0.3 mg/L in the data set on HEK293. Besides, in data set [6], the Selectivity index was determined as 0.53. Besides, in “Dynamic light scattering”, the “nanoparticle formation (DLS)” value was “readily form nanoparticles”. Further, the DNA intercalation entry in data set [8] (relaxed pBR322 plasmid plus topoisomerase I (Fig. 2A)) is “intercalation is reduced if not eliminated”. The “relaxation of supercoiled plasmid through the action of topoisomerase I” value in [8] (supercoiled pBR322 plasmid, bolalipid present (Fig. 2B)) is “not observed”.
